This note sets out measurements from publication PMC9851200, “Multiparameter phenotypic screening for endogenous TFEB and TFE3 translocation identifies novel chemical series modulating lysosome function” (Autophagy, 2022).

Series [1] concerns endogenous TFEB. Description: TFEB nuclear translocation, immunocytochemistry high-content imaging. The format is cell-based.
Series [2] has as its system SH-SY5Y cells.
Description: The PKIS2 Library was supplied by The Structural Genomics Consortium at the University of North Carolina at Chapel Hill.
Series [3] has as its system SH-SY5Y cells. The note with it: human.
Series [4] concerns endogenous TFE3. As to the kind of experiment: TFE3 nuclear translocation, immunocytochemistry high-content imaging. The format is cell-based.
Series [5] concerns SH-SY5Y cells. The note with it: human. This is another data set of the same source.
Protocol: Total cell lysis with 5 µL 5% Triton-X 100 (Sigma-Aldrich, T8787) is used as a positive control for the assay and toxicity is expressed as a percentage of luminescence under DMSO conditions.

SMILES strings stand for the structures. Read-outs that look alike come from different tables or passages of the source.
Throughout, for AK: reference of the scale not given here.
Throughout, for DQ Intensity: reference of the scale not given here.
Throughout, for DQ Spot: reference of the scale not given here.
Throughout, for Nuclear Count: reference of the scale not given here.

As to `O=C(Nc1n[nH]c2cc(-c3ccsc3)ccc12)C1CC1` [SB-732932], in series [1], the TFEB % stood at 11.50%. Also, in series [2], the “DQ Intensity” value was determined as 63.56 and the “DQ Spot” value stood at 84.83. Also, the “Nuclear Count” value in series [3] (SH-SY5Y cells, 24 h, 1 µM) amounted to 130.18. The same molecule returned a TFE3 % in series [4] of 8.30%. The same molecule registered an AK in series [5] (SH-SY5Y cells, 24 h, 1 µM) of 126.66.
For the molecule `COc1cccc(C2=C(Nc3cc(Cl)c(O)c(Cl)c3)C(=O)NC2=O)c1` [UNC10225267A], the TFEB % in series [1] is listed as 6.51%. In addition, in series [2], the “DQ Intensity” value is 123.38 and the “DQ Spot” value is reported as 111.15. Moreover, in series [3] (SH-SY5Y cells, 24 h, 1 µM), the “Nuclear Count” value came to 119.42. The TFE3 % in series [4] is reported as 12.35%. This molecule also returned an AK in series [5] (SH-SY5Y cells, 24 h, 1 µM) of 136.91.
The molecule `CCN1CCN(CCCC(=O)Nc2n[nH]c3nc(-c4ccc(O)cc4)c(Br)cc23)CC1` [SB-731579] registered a TFEB % in series [1] of 17.61%. Further, in series [2], the “DQ Intensity” value was 115.44 and the “DQ Spot” value was found to be 103.09. Also, the “Nuclear Count” value in series [3] (SH-SY5Y cells, 24 h, 1 µM) came out at 67.01. In series [4], the TFE3 % came to 6.82%. The molecule further registered an AK in series [5] (SH-SY5Y cells, 24 h, 1 µM) of 91.62.
The molecule `COc1cccc(C2=C(Nc3ccc(Cl)c(C(=O)O)c3)C(=O)NC2=O)c1` [UNC10225038A] yielded a TFEB % in series [1] of 4.97%. Moreover, in series [2], the “DQ Intensity” value is on record as 120.07 and the “DQ Spot” value was found to be 110.06. The “Nuclear Count” value in series [3] (SH-SY5Y cells, 24 h, 1 µM) is 91.66. In series [4], this molecule yielded a TFE3 % of 15.59%. Besides, the AK in series [5] (SH-SY5Y cells, 24 h, 1 µM) was found to be 67.98.
`O=C(Nc1n[nH]c2cc(-c3ccoc3)ccc12)C1CC1` [SB-738481] returned a TFEB % in series [1] of 6.46%. Further, in series [2], the “DQ Intensity” value is listed as 82.31 and the “DQ Spot” value is recorded as 113.23. Besides, in series [3] (SH-SY5Y cells, 24 h, 1 µM), the “Nuclear Count” value came out at 105.01. The molecule further returned a TFE3 % in series [4] of 12.05%. This molecule also displayed an AK in series [5] (SH-SY5Y cells, 24 h, 1 µM) of 109.29.
As for `Cn1cnc2c(N)ncnc21` [UNC10225123A], the TFEB % in series [1] is reported as 4.18%. Besides, in series [2], the “DQ Intensity” value was determined as 105.88 and the “DQ Spot” value stood at 110.82. The “Nuclear Count” value in series [3] was determined as 110.43. Also, the TFE3 % in series [4] was determined as 9.16%. The molecule further had an AK in series [5] of 74.79.
Regarding `O=C(Nc1n[nH]c2nc(-c3nccs3)c(Br)cc12)C1CC1` [SB-742251], in series [1], the TFEB % came to 12.43%. Moreover, in series [2], the “DQ Intensity” value amounted to 109.29 and the “DQ Spot” value was 109.81. The “Nuclear Count” value in series [3] (SH-SY5Y cells, 24 h, 1 µM) turned out to be 130.73. Moreover, the TFE3 % in series [4] was 5.59%. In series [5] (SH-SY5Y cells, 24 h, 1 µM), this molecule showed an AK of 80.83.
With `COc1cccc(C2=C(Nc3cccc(Cl)c3)C(=O)NC2=O)c1` [UNC10225288A], the TFEB % in series [1] is given as 6.04%. In series [2], the “DQ Intensity” value is reported as 106.89 and the “DQ Spot” value was 108.64. The “Nuclear Count” value in series [3] (SH-SY5Y cells, 24 h, 1 µM) came out at 80.70. The TFE3 % in series [4] turned out to be 8.01%. Besides, the AK in series [5] (SH-SY5Y cells, 24 h, 1 µM) came to 133.69.
The molecule `O=C(Nc1n[nH]c2nc(-c3ccccc3)ccc12)C1CC1` [SB-708999] came in with a TFEB % in series [1] of 6.34%. Besides, in series [2], the “DQ Intensity” value is 102.03 and the “DQ Spot” value is 111.17. Further, the “Nuclear Count” value in series [3] (SH-SY5Y cells, 24 h, 1 µM) amounted to 127.54. This molecule also registered a TFE3 % in series [4] of 15.72%. The AK in series [5] (SH-SY5Y cells, 24 h, 1 µM) was 67.50.
In series [1], `O=C1NC(=O)C(c2ccccc2)=C1Nc1cccc(O)c1` [UNC10225065A] showed a TFEB % of 4.40%. Moreover, in series [2], the “DQ Intensity” value came out at 107.12 and the “DQ Spot” value amounted to 107.03. The “Nuclear Count” value in series [3] (SH-SY5Y cells, 24 h, 1 µM) amounted to 88.09. In series [4], this molecule gave a TFE3 % of 9.48%. This molecule came in with an AK in series [5] (SH-SY5Y cells, 24 h, 1 µM) of 106.60.
`O=C1NC(=O)C(c2ccc(Cl)cc2)=C1Nc1ccc(O)cc1` [UNC10225090A] yielded a TFEB % in series [1] of 11.08%. Besides, in series [2], the “DQ Intensity” value came to 92.30 and the “DQ Spot” value was 94.51. Also, the “Nuclear Count” value in series [3] (SH-SY5Y cells, 24 h, 1 µM) came to 99.00. The molecule further yielded a TFE3 % in series [4] of 11.41%. This molecule also yielded an AK in series [5] (SH-SY5Y cells, 24 h, 1 µM) of 134.26.
